Values quoted from earlier work, collected in publication PMC5944417 (Heliyon, 2018).

Assays:
Settings in all cases: ref Maes et al., 2007
[1] = target: trypsin
[2] = target: plasmin
[3] = target: cathepsin B
[4] = test system: porcine kallikrein
[5] = test system: papain
[6] = test system: endoproteinase Lys-C

Ki [1]: 3.4 nM | Ki [2]: 3.5 nM | Ki [3]: 4.1 nM | inhibition [6]: inhibited
Structure (SMILES): CC(=O)N[C@@H](CC(C)C)C(=O)N[C@@H](CC(C)C)C(=O)N[C@H](C=O)CCCNC(=N)N [Leupeptin, N-acetyl-L-leucyl-L-leucyl-L-argininal]
inhibition [4]: inhibited | inhibition [5]: inhibited
